Measurements taken from paper PMC3585840 (Drugs in R&D, 2012).
Like-named read-outs stand apart in the source and are kept apart here. One block for each compound: values may come before it.

Key:
[1] = Plasma pharmacokinetics, rising multiple-dose study; type: in vivo, human
[2] = test system: spontaneously hypertensive rats (SHR); settings: cited from earlier work
[3] = healthy subjects; cited from earlier work
[4] = type: in vivo, human
Safety and tolerability = type: in vivo, human
[5] = Supine blood pressure and ECG-measured heart rate; type: in vivo, human; settings: for decrease of supine DBP Emax in relation to day 1 / decrease of supine DBP AUCEC in relation to day 1: repeated dosing
[6] = test system: urinary levels of norepinephrine, dopamine, epinephrine and homovanillic acid; experiment: Urinary catecholamine excretion; type: in vivo, human; settings: for decrease of urinary excretion of norepinephrine at day 10 in relation to day 1: 24-hour urine
[7] = cited from earlier work
DβH = settings: cited from earlier work
[8] = etamicastat 25–600 mg once daily for 10 days

days of dosing until steady-state plasma concentrations were attained ([1]; all dose groups 25–600 mg once daily): up to 9 days
linearity of pharmacokinetics ([1]; dose range 25–600 mg): linear pharmacokinetics
day at which steady state was reached (trough plasma concentrations) ([1]; etamicastat 200 mg once daily): 9 days
day at which steady state was reached (trough plasma concentrations) ([1]; etamicastat 400 mg once daily): 8 days
effect of NAT1 phenotype on etamicastat pharmacokinetics ([1]; etamicastat 25–600 mg): No relevant effect
half-life ([1]; male, human, plasma, oral, mean apparent t1/2 following the first dose, range over etamicastat 25–600 mg, plasma): 540 to 900 min
mean observed accumulation ratio (RO) ([1]; range over etamicastat 25–600 mg once daily for 10 days): 1.3–1.9
time after dosing at which maximum concentration (Cmax) was reached ([1]; range over etamicastat 25–600 mg once daily, plasma): 1 to 3 h
day at which steady state was reached (trough plasma concentrations) ([1]; remaining dose groups): < 6 days
urinary excretion rate ([4]; first dose, etamicastat 25 mg): 0.3 ± 0.1 mg/h
urinary excretion rate ([4]; first dose, etamicastat 600 mg): 8.5 ± 3.2 mg/h
urinary excretion rate ([4]; last dose, etamicastat 25 mg): 0.4 ± 0.2 mg/h
urinary excretion rate ([4]; last dose, etamicastat 600 mg): 10.6 ± 2.8 mg/h
CL renal ([4]; male, human, urine and plasma, po): 198 to 267 mL/min
SMILES: Cl.NCCc1c[nH]c(=S)n1[C@H]1COc2c(F)cc(F)cc2C1 [Etamicastat, (R)-5-(2-aminoethyl)-1-(6,8-difluorochroman-3-yl)-1,3-dihydroimidazole-2-thione hydrochloride]
blood pressure and norepinephrine urinary excretion ([2]; chronically administered in drinking water, SHR rats): significantly reduced
urinary excretion of dopamine ([2]; chronically administered in drinking water, only in SHR rats): increased significantly
systolic and diastolic blood pressure (but not the heart rate) ([2]; oral administration, SHR rats, dose-dependent, not observed in normotensive control rats): decreased
effect of food on absorption [3]: delayed by the presence of food
effect of food on extent of systemic exposure (AUC) [3]: no significant effect
subjects reporting diarrhea as an AE (Safety and tolerability; 600 mg etamicastat group): 83%
clinical laboratory evaluations (Safety and tolerability; [8]): no clinically significant abnormality
intensity of adverse events (Safety and tolerability; [8]): mild to moderate
serious adverse events (Safety and tolerability; [8]): no serious AEs
tolerability (Safety and tolerability; etamicastat up to 600 mg once daily for 10 days): generally well tolerated
decrease of supine DBP Emax in relation to day 1 ([5]; etamicastat 100 mg, p < 0.01): 5.6 mmHg
decrease of supine DBP AUCEC in relation to day 1 ([5]; etamicastat 100 mg, p < 0.05): 223 mmHg · h
decrease of supine DBP AUCEC in relation to day 1 ([5]; etamicastat 200 mg, p < 0.05): 193 mmHg · h
decrease of supine DBP Emax in relation to day 1 ([5]; etamicastat 200 mg, p < 0.05): 5.9 mmHg
change in SBP and HR ([5]; following repeated dosing, any dose level): did not significantly change
changes in SBP, DBP or HR ([5]; following the first dose, etamicastat 25–600 mg): no significant changes
change in urinary excretion of homovanillic acid, epinephrine and dopamine ([6]; day 1 to day 10, all dose groups): No relevant changes
decrease in norepinephrine urinary excretion ([6]; doses of etamicastat 100 mg and above, day 10 vs day 1): 32–36%
decrease of urinary excretion of norepinephrine at day 10 in relation to day 1 ([6]; etamicastat 25 mg once daily): 24%
decrease of urinary excretion of norepinephrine at day 10 in relation to day 1 ([6]; etamicastat 50 mg once daily): 18%
decrease of urinary excretion of norepinephrine at day 10 in relation to day 1 ([6]; etamicastat 100 mg once daily): 36%
decrease of urinary excretion of norepinephrine at day 10 in relation to day 1 ([6]; etamicastat 200 mg once daily): 34%
decrease of urinary excretion of norepinephrine at day 10 in relation to day 1 ([6]; etamicastat 400 mg once daily): 32%
decrease of urinary excretion of norepinephrine at day 10 in relation to day 1 ([6]; etamicastat 600 mg once daily): 34%
time of maximum plasma concentrations (Cmax) after dosing ([7]; single dose 2–1200 mg): 1 to 3 h
tolerability ([7]; single doses 2–1200 mg): well tolerated at all the investigated dose levels
longer elimination half-life (t1/2) ([7]; single etamicastat doses ≥100 mg): 16 to 20 h

SMILES: NCc1c[nH]c(=S)n1[C@H]1CCc2c(F)cc(F)cc2C1 [Nepicastat]
potency as DβH inhibitor versus first- and second-generation inhibitors (DβH): much greater potency
